According to patent US20020156112A1, “Endostatin-like angiogenesis inhibition” (priority 2000, published 2002):
Values belong to the compound of their own block, whether it stands above or below them.

Columns and labels:
Type in all cases: binding
[1] = test system: RGD-endostatin interaction; assay: Colloid colour-change drug screen for endostatin mimics via RGD/endostatin interaction (Example 8); conditions: 5 μL candidate drug at 2.9 mg/ml in DMSO; 4.75 ul of 0.1 mg/mL endostatin; room temperature, about 20 minutes
Experimental: In yet another aspect of the invention, a high throughput drug screening assay is described that identifies endostatin mimics is described. Histidine-tagged peptides containing two tandem GRGDS motifs are immobilized, from a phosphate buffered saline solution, onto gold nanoparticles (called colloids) that have been derivatized with NTA-Ni-SAMs that capture histidine-tagged species. Endostatin, which is a dimer in its functional form, is added to the colloidal solution. Dimeric endostatin presents two binding sites that recognize GRGDS motif peptides. The binding of dimeric endostatin to two peptides attached to two different colloids, draws the colloids close together and causes the color of the gold colloid solution to change from pink to blue. Recall that colloidal gold appears pink when the particles are dispersed in a homogeneous solution, but the solution turns blue when the particles are aggregated, see FIG. 5. Drug candidates are added to the colloid-immobilized GRGDS motif peptides and endostatin solution. When a drug candidate effectively interrupts the endostatin—GRGDS motif peptide interaction, the solution remains pink. Recall that the drug candidates are monomeric and therefore, even if they bind to the GRGDS peptides, they cannot bring two colloids together, which would cause the solution color to change from the inherent pink, to blue, see FIG. 7.
60 uM NTA colloids presenting a His-tagged peptide containing […] RGD motifs (GRGDSGRGDS) were prepared by incubating 1 mL of colloids with 200 ul 100 uM His-RGD for ten minutes, pelleting the colloids to remove excess unbound peptide, and resuspending the colloids in PBS. Negative control colloids were prepared by substituting a random His-tagged peptide in place of the RGD peptide. 30 μL RGD-colloids (or random peptide-colloids for negative controls) were added to each well of a 96-well plate along with 60 ul PBS per well. 5 μL of a candidate drug at 2.9 mg/ml in DMSO was added to each well of the plate. Candidate drugs including L-histidine, D-cycloserine, quisqualic acid and suramin were assessed. (See FIGS. 1-4). DMSO was added in place of a drug to each of the positive and negative controls. 4.75 ul of 0.1 mg/mL endostatin was added to each well. The plate was incubated at room temperature and observed for color change. After about 20 minutes, the positive controls changed color from pink to blue as the endostatin bound to the RGD peptide. […] Drugs identified in this manner that bound to the RGD motif and inhibited binding of endostatin may be endostatin mimics and could be used as synthetic replacements of endostatin.

[2] = target: T1, endostatin—GRGDS interaction (Homo sapiens, UniProt P39060); assay: Vitronectin competition in gold colloid colour-change assay (Example 6)
T1 construct: purchased Calbiochem 324746
T1 sequence (P39060 1572-1754 limits assumed): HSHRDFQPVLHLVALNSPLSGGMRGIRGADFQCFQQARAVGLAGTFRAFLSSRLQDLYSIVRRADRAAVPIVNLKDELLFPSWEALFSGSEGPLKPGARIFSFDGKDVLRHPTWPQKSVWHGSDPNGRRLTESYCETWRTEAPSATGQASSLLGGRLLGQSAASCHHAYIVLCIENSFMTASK
Experimental: 40 μM NTA gold colloids were prepared which presented the His-tagged RGD peptide (Sequence ID No.1, see Table 1). These colloids were mixed with endostatin (0.1 mg /mL) and turned blue, indicating binding of endostatin to the GRGDS peptide (A1, A2, FIG. 6). Control colloids presenting an irrelevant FLR-peptide (Sequence ID #2, see table 1) remained pink (wells A3, A4). At the highest concentration of vitronectin (0.1 mg /ml), the endostatin—GRGDS interaction is disrupted, and the well remains pink (B1). At lower concentrations of vitronectin, the endostatin—GRDS interaction is not affected and the wells turn blue (B2-B5).

[3] = Biotin-streptavidin interaction with gold colloids (Example 1)
Experimental: (§1) Gold colloids were prepared using a mixture of 10 μM biotin thiol, 10 μM NTA thiol, and 580 μM C11 thiol. Control colloids were prepared using 20 μM NTA thiol and 580 μM C11 thiol for a total thiol concentration of 600 μM. After deposition, the colloids were heat cycled in 400 μM EG3 thiol, and charged with nickel sulfate. A streptavidin stock solution (1 mg/mL) was prepared in 10 mM sodium phosphate buffer, 100 mM sodium chloride, pH 7.4 (buffer) To detect the biotin-streptavidin interaction, 60 μL buffer, 10 μL streptavidin, and 30 μL colloids, were mixed in a well of a 96-well plate. The plate was incubated at room temperature and observed for color change. At the three highest concentrations of streptavidin (0.1 mg/mL, 0.01 mg/mL, 0.001 mg/mL) the colloids presenting biotin turned blue (wells A1, A2, A3, FIG. 5). At lower concentrations of streptavidin, the wells containing biotin colloids remained pink (wells A4, A5, A6, A7). A similar experiment was performed using colloids presenting only the NTA group (wells B1-B7).
(§2) FIG. 5 is a digital photo of a colorimetric nanoparticle experiment in which gold colloids were derivatized with either biotin-SAMs (top row) or NTA-Ni-SAMs (bottom row). Streptavidin which has four binding sites for biotin, and thus will cross-link biotin-presenting colloids, was added free in solution. […]

[4] = Biotin-streptavidin interaction, control colloids (Example 1); conditions: same streptavidin concentrations; wells B1-B7
Experimental: as §1, §2

Compound: N[C@@H]1CONC1=O [D-cycloserine]
disruption of RGD-endostatin interaction (well remains pink) [1]: disrupted the RGD-endostatin interaction

Compound: N[C@@H](Cn1oc(=O)[nH]c1=O)C(=O)O [quisqualic acid]
disruption of RGD-endostatin interaction (well remains pink) [1]: disrupted the RGD-endostatin interaction

Compound: N[C@@H](Cc1c[nH]cn1)C(=O)O [L-histidine]
disruption of RGD-endostatin interaction (well remains pink) [1]: disrupted the RGD-endostatin interaction

effect on endostatin—GRGDS interaction ([2]; highest concentration of vitronectin (0.1 mg/ml), well B1): disrupted
effect on endostatin—GRGDS interaction ([2]; lower concentrations of vitronectin, wells B2-B5): not affected
Compound: vitronectin: full-length vitronectin, a cell adhesion molecule containing the GRGDS motif

Compound: Cc1ccc(C(=O)Nc2ccc(S(=O)(=O)O)c3cc(S(=O)(=O)O)cc(S(=O)(=O)O)c23)cc1NC(=O)c1cccc(NC(=O)Nc2cccc(C(=O)Nc3cc(C(=O)Nc4ccc(S(=O)(=O)O)c5cc(S(=O)(=O)O)cc(S(=O)(=O)O)c45)ccc3C)c2)c1 [suramin]
disruption of RGD-endostatin interaction (well remains pink) [1]: disrupted the RGD-endostatin interaction

Compound: streptavidin: Streptavidin which has four binding sites for biotin, added free in solution
colour of biotin colloids ([3]; lower concentrations of streptavidin, wells A4-A7): remained pink
colour of biotin colloids ([3]; three highest concentrations of streptavidin (0.1 mg/mL, 0.01 mg/mL, 0.001 mg/mL), wells A1-A3): turned blue
colour of NTA-only control colloids [4]: remained pink
